≈ marks a conversion by molar mass, not a printed value.

Usually EC50 stands for the midpoint of the concentration-response curve.

Data set [1] relates to HRV 14. Description: Cytopathic effect (CPE) inhibition assay. The note with it: Human rhinovirus sp., HeLa, 72 h, host cell HeLa, 3 days, MEM/2% FBS, MTT assay; read-out: EC50 HRV 14. It counts as cell-based, human rhinovirus. On the technique in general: Damage to the host cells serves as the signal in cytopathic effect assays.
Data set [2] relates to HRV 21. Briefly: Cytopathic effect (CPE) inhibition assay. It is filed as cell-based, human rhinovirus. The note with it: Human rhinovirus sp., 72 h; host cell HeLa, 3 days, MEM/2% FBS, MTT assay; read-out: EC50 HRV 21.
Data set [3] has as its system HRV 71. Description: Cytopathic effect (CPE) inhibition assay. It counts as cell-based, human rhinovirus. The following applies: Human rhinovirus sp., 72 h; host cell HeLa, 3 days, MEM/2% FBS, MTT assay; read-out: EC50 HRV 71.
Data set [4] deals with coxsackievirus B1 (Cox B1). Briefly: Multicycle cytopathic effect (CPE) reduction assay. It counts as cell-based. The following applies: Enterovirus B, B1, 72 h, read-out: EC50 CoxB1.
Data set [5] relates to coxsackievirus B3 (Cox B3). Briefly: Multicycle cytopathic effect (CPE) reduction assay. It counts as cell-based. The note with it: Enterovirus B, B3, 72 h, read-out: EC50 CoxB3.
The test system of data set [6] is poliovirus 3 (PV3). Description: microbe, parasite or virus in culture. It counts as cell-based. The note with it: Enterovirus C, 72 h, read-out: EC50 PV3.
Data set [7] can be described thus: in vitro. The note with it: human.
Data set [8] can be described thus: Cytotoxicity (CC50) in multicycle CPE reduction assay, MTS. The note with it: human.

In the case of `CC(C)c1ccc2c(c1)OC1(O)c3ccccc3C(=O)C21NC(=O)CN` (centres unmarked) [Example 64, 2-amino-N-(4b-hydroxy-7-isopropyl-10-oxo-4b, 10-dihydro-9bH-indeno[1,2-b]benzofuran-9b-yl)acetamide], the EC50 in data set [1] was less than 10 µg/mL; in data set [2] it was more than 10 µg/mL; in data set [3], more than 10 µg/mL; in data set [4] it was less than 0.1 µg/mL; in data set [5] it was less than 0.1 µg/mL; in data set [6], more than 10 µg/mL. The compound further had a CC50 in data set [7] of more than 10 µg/mL. Also, in data set [8], the CC50 at 3 days is more than 10 µg/mL.
Regarding `CC(C)c1ccc2c(c1)OC1(O)c3cccc(N)c3C(=O)C21NC(=O)C(=O)N(C)C` (centres unmarked) [Example 31, N1-(1-amino-4b-hydroxy-7-isopropyl-10-oxo-4b, 10-dihydro-9bH-indeno[1,2-b]benzofuran-9b-yl)-N2, N2-dimethyl oxal amide], the EC50 in data set [1] is 0.012 µg/mL (≈ 0.0293 µM); in data set [2], less than 10 µg/mL; in data set [3] it was 73 µg/mL (≈ 178 µM); in data set [4] it was less than 0.01 µg/mL; in data set [5], less than 0.01 µg/mL; in data set [6], less than 0.1 µg/mL. The same compound showed a CC50 in data set [7] of more than 10 µg/mL. Moreover, in data set [8], the CC50 at 3 days was more than 10 µg/mL.
As to `Cc1cccc(C)c1NC(=O)C(=O)NC12C(=O)c3cccc([N+](=O)[O-])c3C1(O)Oc1cc(C(C)C)ccc12` (centres unmarked) [Example 26, N1-(2,6-dimethylphenyl)-N2-(4b-hydroxy-7-isopropyl-4-nitro-10-oxo-4b, 10-dihydro-9bH-indeno[1,2-b]benzofuran-9b-yl)oxal amide], the EC50 was less than 10 µg/mL in data set [1]; more than 10 µg/mL in data set [2]; more than 10 µg/mL in data set [3]; less than 10 µg/mL in data set [4]; less than 10 µg/mL in data set [5]; more than 10 µg/mL in data set [6]. Further, in data set [7], the CC50 is more than 10 µg/mL. The same compound registered a CC50 at 3 days in data set [8] of more than 10 µg/mL.
In the case of `CC(C)CC(=O)C(=O)NC12C(=O)c3c(N)cccc3C1(O)Oc1cc(C(C)C)ccc12` (centres unmarked) [Example 49, N-(1-amino-4b-hydroxy-7-isopropyl-10-oxo-4b, 10-dihydro-9bH-indeno[1,2-b]benzofuran-9b-yl)-4-methyl-2-oxo pentanamide], the EC50 in data set [1] was less than 0.1 µg/mL; in data set [2], more than 10 µg/mL; in data set [3] it was more than 10 µg/mL; in data set [4], less than 0.01 µg/mL; in data set [5] it was less than 0.01 µg/mL; in data set [6], less than 0.1 µg/mL. This compound came in with a CC50 in data set [7] of more than 10 µg/mL. This compound also came in with a CC50 at 3 days in data set [8] of more than 10 µg/mL.
Consider `CC(C)c1ccc2c(c1)OC1(O)c3ccccc3C(=O)C21NC(=O)C(=O)CCc1ccccc1` (centres unmarked) [Example 39, N-(4b-hydroxy-7-isopropyl-10-oxo-4b, 10-dihydro-9bH-indeno[1,2-b]benzofuran-9b-yl)-2-oxo-4-phenyl butanamide], for which the EC50 in data set [1] was less than 10 µg/mL; in data set [2] it was more than 9.5 µg/mL; in data set [3] it was more than 9.5 µg/mL; in data set [4], less than 0.1 µg/mL; in data set [5], less than 0.1 µg/mL; in data set [6], less than 10 µg/mL. Also, the CC50 in data set [7] stood at 9.5 µg/mL (≈ 20.9 µM). In data set [8], this compound gave a CC50 at 3 days of more than 10 µg/mL.
For the compound `Cc1cc2c(cc1C)C1(NC(=O)C(=O)c3ccccc3)C(=O)c3ccccc3C1(O)O2` (centres unmarked) [Example 12, N-(4b-hydroxy-7,8-dimethyl-10-oxo-9b, 10-dihydro-4bH-indeno[1,2-b]benzofuran-9b-yl)-2-oxo-2-phenyl acetamide], the EC50 was 2.08 µg/mL (≈ 5.03 µM) in data set [1]; more than 10 µg/mL in data set [2]; more than 10 µg/mL in data set [3]; 0.015 µg/mL (≈ 0.0363 µM) in data set [4]; 0.064 µg/mL (≈ 0.155 µM) in data set [5]; 9.8 µg/mL (≈ 23.7 µM) in data set [6]. Also, in data set [7], the CC50 was more than 10 µg/mL. This compound also registered a CC50 at 3 days in data set [8] of more than 10 µg/mL.
With `CC(C)c1ccc2c(c1)OC1(O)c3ccccc3C(=O)C21NC(=O)C(=O)Cc1ccc(O)cc1` (centres unmarked) [Example 9, N-(4b-hydroxy-7-isopropyl-10-oxo-9b, 10-dihydro-4bH-indeno[1,2-b]benzofuran-9b-yl)-3-(4-hydroxyphenyl)-2-oxo propanamide], the EC50 was more than 3.76 µg/mL in data set [1]; more than 3.76 µg/mL in data set [2]; more than 3.76 µg/mL in data set [3]; 0.013 µg/mL (≈ 0.0284 µM) in data set [4]; 0.015 µg/mL (≈ 0.0328 µM) in data set [5]; less than 1 µg/mL in data set [6]. Besides, in data set [7], the CC50 was 3.76 µg/mL (≈ 8.22 µM). For the same compound, the CC50 at 3 days in data set [8] came to 9.21 µg/mL (≈ 20.1 µM).
Consider `CC(C)c1ccc2c(c1)OC1(O)c3ccccc3C(=O)C21NC(=O)C(=O)c1cccs1` (centres unmarked) [Example 2, N-(4b-hydroxy-7-isopropyl-10-oxo-9b, 10-dihydro-4bH-indeno[1,2-b]benzofuran-9b-yl)-2-oxo-2-(thiopen-2-yl)acetamide], for which the EC50 is less than 0.1 µg/mL in data set [1]; more than 8.57 µg/mL in data set [2]; more than 8.57 µg/mL in data set [3]; less than 0.01 µg/mL in data set [4]; less than 0.01 µg/mL in data set [5]; less than 1 µg/mL in data set [6]. In data set [7], the CC50 turned out to be 8.57 µg/mL (≈ 19.8 µM). This compound had a CC50 at 3 days in data set [8] of 9.02 µg/mL (≈ 20.8 µM).
As for `CC(C)c1ccc2c(c1)OC1(O)c3c(cccc3[N+](=O)[O-])C(=O)C21NC(=O)C(=O)c1c[nH]c2ccccc12` (centres unmarked) [Example 8, N-(4b-hydroxy-7-isopropyl-4-nitro-10-oxo-9b, 10-dihydro-4bH-indeno[1,2-b]benzofuran-9b-yl)-2-(1H-indol-3-yl)-2-oxo acetamide], the EC50 in data set [1] is 2.31 µg/mL (≈ 4.52 µM); in data set [2] it was more than 10 µg/mL; in data set [3] it was more than 10 µg/mL; in data set [4], 0.56 µg/mL (≈ 1.09 µM); in data set [5] it was 1.82 µg/mL (≈ 3.56 µM); in data set [6], 9.8 µg/mL (≈ 19.2 µM). Moreover, in data set [7], the CC50 is more than 10 µg/mL. The CC50 at 3 days in data set [8] is more than 10 µg/mL.
`Cc1cc(C)c(C(=O)C(=O)NC23C(=O)c4cccc([N+](=O)[O-])c4C2(O)Oc2cc(C(C)C)ccc23)c(C)c1` (centres unmarked) [Example 51]: the EC50 in data set [1] was more than 10 µg/mL; in data set [2], more than 10 µg/mL; in data set [3], more than 10 µg/mL; in data set [4] it was less than 10 µg/mL; in data set [5] it was less than 10 µg/mL; in data set [6], more than 10 µg/mL. The CC50 in data set [7] is more than 10 µg/mL. Also, in data set [8], the CC50 at 3 days is more than 10 µg/mL.
As to `CC(C)c1ccc2c(c1)OC1(O)c3ccccc3C(=O)C21OC(=O)NCCNC(=O)OC(C)(C)C` (centres unmarked) [Example 56, Tert-butyl (4b-hydroxy-7-isopropyl-10-oxo-4b, 10-dihydro-9bH-indeno[1,2-b]benzofuran-9b-yl)ethan-1,2-diyl dicarbamate], the concentration for a half-maximal effect (EC50) in data set [1] was more than 10 µg/mL; in data set [2], more than 10 µg/mL; in data set [3], more than 10 µg/mL; in data set [4] it was less than 10 µg/mL; in data set [5], less than 10 µg/mL; in data set [6] it was more than 10 µg/mL. In data set [7], this compound displayed a CC50 of more than 10 µg/mL. In data set [8], this compound displayed a CC50 at 3 days of more than 10 µg/mL.
For the compound `CCNC(=O)OC12C(=O)c3ccccc3C1(OC)Oc1cc(C(C)C)ccc12` (centres unmarked) [Example 62, 7-isopropyl-4b-methoxy-10-oxo-4b, 10-dihydro-9bH-indeno[1,2-b]benzofuran-9b-yl ethyl carbamate], the EC50 in data set [1] was more than 10 µg/mL; in data set [2] it was more than 10 µg/mL; in data set [3], more than 10 µg/mL; in data set [4], less than 10 µg/mL; in data set [5] it was less than 10 µg/mL; in data set [6], more than 10 µg/mL. This compound yielded a CC50 in data set [7] of more than 10 µg/mL. The compound also yielded a CC50 at 3 days in data set [8] of more than 10 µg/mL.
As for `CC(C)c1ccc2c(c1)OC1(O)c3ccccc3C(=O)C21NC(=O)C(=O)CBr` (centres unmarked) [Example 41, 3-bromo-N-(4b-hydroxy-7-isopropyl-10-oxo-4b, 10-dihydro-9bH-indeno[1,2-b]benzofuran-9b-yl)-2-oxo propanamide], the EC50 in data set [1] was less than 10 µg/mL; in data set [2], more than 10 µg/mL; in data set [3] it was more than 10 µg/mL; in data set [4] it was less than 0.1 µg/mL; in data set [5] it was less than 0.1 µg/mL; in data set [6], more than 10 µg/mL. Moreover, the CC50 in data set [7] was more than 10 µg/mL. Also, the CC50 at 3 days in data set [8] is more than 10 µg/mL.
Consider `CC(=O)C(=O)NC12C(=O)c3ccccc3C1(O)Oc1cc(C(C)C)ccc12` (centres unmarked) [Example 4, N-(4b-hydroxy-7-isopropyl-10-oxo-9b, 10-dihydro-4bH-indeno[1,2-b]benzofuran-9b-yl)-2-oxo propanamide], for which the EC50 is less than 0.1 µg/mL in data set [1]; more than 9.02 µg/mL in data set [2]; more than 9.02 µg/mL in data set [3]; less than 0.01 µg/mL in data set [4]; less than 0.01 µg/mL in data set [5]; less than 1 µg/mL in data set [6]. This compound returned a CC50 in data set [7] of 9.02 µg/mL (≈ 24.7 µM). For the same compound, the CC50 at 3 days in data set [8] was more than 10 µg/mL.
On to `CC(C)c1ccc2c(c1)OC1(O)c3ccccc3C(=O)C21N/C(=N\C(=O)OC(C)(C)C)NC(=O)OC(C)(C)C` (centres unmarked) [Example 55], for which the EC50 is less than 10 µg/mL in data set [1]; more than 10 µg/mL in data set [2]; more than 10 µg/mL in data set [3]; less than 1 µg/mL in data set [4]; less than 1 µg/mL in data set [5]; more than 10 µg/mL in data set [6]. This compound displayed a CC50 in data set [7] of more than 10 µg/mL. In data set [8], this compound displayed a CC50 at 3 days of more than 10 µg/mL.
In the case of `CCC(C)C(=O)C(=O)NC12C(=O)c3ccccc3C1(O)Oc1cc(C(C)C)ccc12` (centres unmarked) [Example 29, N-(4b-hydroxy-7-isopryl-10-oxo-4b, 10-dihydro-9bH-indeno[1,2-b]benzofuran-9b-yl)-3-methyl-2-oxo pentanamide], the EC50 in data set [1] was less than 1 µg/mL; in data set [2], more than 10 µg/mL; in data set [3] it was more than 10 µg/mL; in data set [4], less than 0.1 µg/mL; in data set [5], less than 0.1 µg/mL; in data set [6], less than 1 µg/mL. This compound registered a CC50 in data set [7] of more than 10 µg/mL. The compound also yielded a CC50 at 3 days in data set [8] of more than 10 µg/mL.

Values taken from US9951058B2, “Compound, pharmaceutically acceptable salt or optical isomer thereof, method for preparing the same, and pharmaceutical composition for prevention or treatment of viral diseases containing same as active ingredient” (Korea Research Institute of Chemical Technology, priority 2012, dated 2018).
